The target of the experiment is Fibroblast growth factor receptor (Homo sapiens, UniProt P22607+P11362+P22455+P21802). The experiment can be described thus: Inhibition of FGFR (unknown origin) using poly (4:1) glutamate-tyrosine substrate and [gamma32P]ATP incubated for 10 mins by beta plate counter based assay. The experiment is classed as protein assay.

The structures appear in SMILES notation.

In the case of `O=c1ccc2cnc(Nc3ccccc3)nc2n1C1CCCC1`, the IC50 (commonly the concentration needed to halve the response being measured) came to 2980 nM.

The values are drawn from ChEMBL document CHEMBL3880393, “2-(Pyridin-2-ylamino)-pyrido[2,3-d]pyrimidin-7-ones” (2003).
